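All cell lines were grown in 96-well plates and treated with compound for 48 hours. At the GI50, growth is halved. Definition used: TGI = concentration required for complete inhibition of growth.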
Experiments:
Assay in all cases: inhibition of tumour cell growth, NCI panel, 48 h
OVCAR-5 ovarian = test system: OVCAR-5 ovarian
SK-MEL-5 melanoma = test system: SK-MEL-5 melanoma
MDA-MB-435 = test system: MDA-MB-435
COLO 205 colon = test system: COLO 205 colon
HCC-2998 colon = test system: HCC-2998 colon
KM12 colon = test system: KM12 colon
SNB-19 CNS = test system: SNB-19 CNS
T-47D breast = test system: T-47D breast
SK-OV-3 ovarian = test system: SK-OV-3 ovarian
UACC-257 melanoma = test system: UACC-257 melanoma

| SMILES | GI50 (OVCAR-5 ovarian) [µM] | TGI (OVCAR-5 ovarian) [µM] | GI50 (SK-MEL-5 melanoma) [µM] | TGI (SK-MEL-5 melanoma) [µM] | GI50 (MDA-MB-435) [µM] | TGI (MDA-MB-435) [µM] | GI50 (COLO 205 colon) [µM] | TGI (COLO 205 colon) [µM] | GI50 (HCC-2998 colon) [µM] | TGI (HCC-2998 colon) [µM] | GI50 (KM12 colon) [µM] | TGI (KM12 colon) [µM] | GI50 (SNB-19 CNS) [µM] | TGI (SNB-19 CNS) [µM] | GI50 (T-47D breast) [µM] | TGI (T-47D breast) [µM] | GI50 (SK-OV-3 ovarian) [µM] | TGI (SK-OV-3 ovarian) [µM] | GI50 (UACC-257 melanoma) [µM] | TGI (UACC-257 melanoma) [µM] |
| --- | --- | --- | --- | --- | --- | --- | --- | --- | --- | --- | --- | --- | --- | --- | --- | --- | --- | --- | --- | --- |
| C[C@@H](Oc1cc(-c2cnn(C3CC4(CCNCC4)C3)c2)cnc1N)c1c(F)ccc(Cl)c1Cl | 1.39 | 6.65 | 1.47 | 2.85 | 1.06 | 2.39 | 0.293 | 0.864 | 1.42 | 3.1 | 0.0399 | 1.39 | 4.29 | 18.1 | 1.58 | 3.24 | 2.43 | 6.75 | 1.47 | 2.99 |
| C=C1C(=O)O[C@H]2[C@H]1CC/C(Cn1cc(Cn3ccc4cc(Cl)ccc43)nn1)=C\CC[C@@]1(C)O[C@@H]21 | 1.65 | 3.54 | 1.73 | 3.32 | 1.56 | 2.98 | 1.69 | 3.5 | 1.98 | 3.92 | 2.01 | 4.24 | 1.97 | 4.49 | 1.72 | 4.32 | 13.9 | 26.9 | 1.7 | 3.61 |
| COc1ccc2c(c1)C(=O)c1c-2c(N2CCN(C(=O)CN(C)C)CC2)nc2ccccc12 | 28.8 | 67.3 | 18.2 | 34.6 | 30.2 | 98 | 13.3 | 28.1 | 15.2 | 40.5 | 25.4 | 83.1 | 16.6 | 35.9 | 16.2 | 34.1 | 19.6 | > 100 | 12.1 | 30.3 |
| COc1cc2c3c(n(CCCn4ccnc4)c(=O)c2cc1OC)-c1ccccc1C3=O | 0.26 | 1.25 | < 0.0333 | 0.0861 | 0.0417 | 0.779 | 0.0979 |  | 0.0598 | 0.504 | 0.126 | 5.03 | < 0.0285 | > 69 | 0.0357 | 0.509 | 1.13 |  |  | 0.199 |
| O=C(/C=C/c1ccc2c(c1)OCO2)c1ccccc1 | 16.2 | 36.8 | 15.6 | 29.4 | 3.58 | 19.3 | 19.1 | 36.7 | 16 | 30.2 | 3.02 | 14 | 15.1 | 32.1 | 15.5 | 39.5 | 27.5 | 83.1 | 18.6 | 39.5 |
| O=[N+]([O-])c1ccccc1/C=C/C=C1c2ccccc2-c2ccccc21 | > 100 | > 100 | > 100 | > 100 | 12.4 | > 100 | > 100 | > 100 | > 100 | > 100 | > 100 | > 100 | > 100 | > 100 | > 100 | > 100 | > 100 | > 100 | > 100 | > 100 |
| Nc1nc(F)nc2c1ncn2C1OC(COP(=O)(O)O)C(O)C1O (configuration not stated) |  | 617 |  | 406 |  | 218 |  | 610 |  | 1170 |  | 900 |  | 1000 |  | 489 |  | 292 |  | 813 |
| O=C(CSc1nc2sc3c(c2c(=O)n1-c1ccccc1)CCCCC3)N/N=C/c1ccc(F)cc1 | 3.76 | 20.6 | 2.93 | 9.56 | 10.3 | > 100 | 1.58 | 3.64 | 49.5 | > 100 | 6 | > 100 | 3.45 | 13.2 | 2.34 | 24.6 | 3.47 | 11.8 | 7.54 | > 100 |
| COc1ccc(/C(Cl)=C(\C=O)c2cc(OC)c(OC)c(OC)c2)cc1OC |  | > 100 |  | > 100 |  | > 100 |  | > 100 |  | > 100 |  | 73.8 |  | > 100 |  | > 100 |  | > 100 |  | > 100 |
| O=C1C=CC(=O)N1c1ccc2c(c1)Cc1cc(NC(=O)C(F)(F)F)ccc1-2 |  | 31.8 |  | > 100 |  | 31.5 |  | 26 |  | > 58.9 |  | 40.6 |  | > 65.5 |  | 53.2 |  | > 100 |  | 35.8 |
| O=C(c1cccs1)c1c(C(F)(F)F)n([O-])c2cc(C(F)(F)F)ccc2[n+]1=O | 0.432 | 1.37 | 0.314 | 0.723 | 0.315 | 0.877 | 0.174 | 0.362 | 0.293 | 0.85 | 0.183 | 0.38 | 0.348 | 0.707 | 0.154 | 0.4 | 0.758 | 1.87 | 0.662 | 1.82 |
| Nc1c(C(=O)Nc2cccc3ccccc23)sc2nc3c(cc12)CCCCC3 | 2.48 | > 50 | 0.347 | 11.5 | 0.116 | 0.32 | 1.46 | 4.99 | 2.41 | > 50 | 0.76 | > 50 | 0.662 | > 50 | 5.94 | > 50 | 1.47 | > 50 | 17.1 | > 50 |
| C/C(=C\c1ccn(-c2ccc(N)cc2C(F)(F)F)n1)[C@@H]1C[C@@H]2O[C@]2(C)CCC[C@H](C)[C@H](O)[C@@H](C)C(=O)C(C)(C)[C@@H](O)CC(=O)O1 | 0.519 | > 11.1 | 0.356 | > 11.1 | 0.0599 | 0.286 | 0.25 | 0.773 | 0.306 | 6.23 | 0.254 | > 11.1 | 0.553 | > 11.1 | 0.658 | > 11.1 | 0.42 | > 11.1 | 1.03 | > 11.1 |

From PubChem BioAssay (NCI)
